Results: ChEMBL document CHEMBL1201862, “PubChem BioAssay data set” (2004)
Active and inactive are the calls of the source.

Legend:
[1] = biological target: T1, Mannose-6-phosphate isomerase (Homo sapiens, UniProt P34949); experiment: MPI inhibition at elevated mannose 6-phosphate – biochemical, fluorescence intensity, high mannose 6-phosphate, primary screen (AID 1220)
T1 sequence (P34949 whole entry): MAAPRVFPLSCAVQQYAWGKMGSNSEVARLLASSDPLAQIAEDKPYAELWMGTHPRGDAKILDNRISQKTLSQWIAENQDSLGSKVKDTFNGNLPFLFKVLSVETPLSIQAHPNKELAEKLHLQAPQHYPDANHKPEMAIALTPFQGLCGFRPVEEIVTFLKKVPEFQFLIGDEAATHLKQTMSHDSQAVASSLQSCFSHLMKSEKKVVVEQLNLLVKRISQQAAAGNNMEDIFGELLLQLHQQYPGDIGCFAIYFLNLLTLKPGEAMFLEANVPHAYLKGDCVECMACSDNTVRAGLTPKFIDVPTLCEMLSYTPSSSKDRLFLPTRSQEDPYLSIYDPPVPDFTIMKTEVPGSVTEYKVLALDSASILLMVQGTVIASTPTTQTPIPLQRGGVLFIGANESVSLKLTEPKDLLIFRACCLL

[2] = biological target: Mitogen-activated protein kinase 10 (Homo sapiens, UniProt P53779); experiment: Dose response biochemical screening assay for inhibitors of c-Jun N-Terminal Kinase 3 (JNK3). [Related pubchem assays: 746 ]
Sequence of Mitogen-activated protein kinase 10 (P53779 whole entry, the tested form may be a part): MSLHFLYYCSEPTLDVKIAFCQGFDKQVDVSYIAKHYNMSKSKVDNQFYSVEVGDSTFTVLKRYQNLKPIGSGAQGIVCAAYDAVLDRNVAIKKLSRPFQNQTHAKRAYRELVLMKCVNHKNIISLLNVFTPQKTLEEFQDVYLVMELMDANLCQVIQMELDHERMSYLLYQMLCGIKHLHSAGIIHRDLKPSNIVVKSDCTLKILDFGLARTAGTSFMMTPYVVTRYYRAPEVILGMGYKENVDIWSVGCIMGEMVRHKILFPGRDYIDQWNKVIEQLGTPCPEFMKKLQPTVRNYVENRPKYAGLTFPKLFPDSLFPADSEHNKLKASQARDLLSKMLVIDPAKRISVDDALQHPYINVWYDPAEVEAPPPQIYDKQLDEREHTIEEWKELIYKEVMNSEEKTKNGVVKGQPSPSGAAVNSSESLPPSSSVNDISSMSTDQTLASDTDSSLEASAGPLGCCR

[3] = biological target: T2, Oxysterols receptor LXR-beta (Homo sapiens, UniProt P55055); type: functional, cell-based;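 note: Cell-based luminescence dose-response assay of agonist activity at LXR, run as a confirmatory counterscreen to a daf-12 agonist screen; HEK293 cells with Gal4-LXR fusion and GAL4-driven luciferase reporter; agonist potency from rising luciferase signal of a Gal4-LXR reporter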
T2 sequence (P55055 whole entry): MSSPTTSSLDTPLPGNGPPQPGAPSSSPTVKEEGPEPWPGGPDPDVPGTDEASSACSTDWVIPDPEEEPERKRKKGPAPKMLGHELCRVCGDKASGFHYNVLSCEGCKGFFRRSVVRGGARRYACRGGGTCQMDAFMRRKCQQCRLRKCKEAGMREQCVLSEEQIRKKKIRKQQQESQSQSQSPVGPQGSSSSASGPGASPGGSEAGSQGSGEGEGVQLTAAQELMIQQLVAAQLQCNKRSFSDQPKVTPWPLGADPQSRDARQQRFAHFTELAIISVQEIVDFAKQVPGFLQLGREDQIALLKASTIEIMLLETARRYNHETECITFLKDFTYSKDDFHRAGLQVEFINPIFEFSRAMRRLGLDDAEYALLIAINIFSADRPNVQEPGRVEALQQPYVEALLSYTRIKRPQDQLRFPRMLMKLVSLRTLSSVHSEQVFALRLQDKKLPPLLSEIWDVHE

cells [4] = experiment: cells
[5] = viability loss in human Jurkat cells – cell-based, luminescence, cytotoxicity control for P. falciparum gametocyte viability project, dose response (AID 1117277); type: functional;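 note: potency reflects loss of cellular ATP meaning fewer viable cells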
[6] = viability inhibitors of stage V gametocytes – luminescence, dose response (AID 1117278); type: functional, cell-based;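 note: gametocytes exposed to compound for 24 hours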
[7] = biological target: T3, Polyadenylate-binding protein 1 (Homo sapiens, UniProt P11940); experiment: MLLE domain peptide-binding blockers, IC50 – biochemical, fluorescence polarization, FITC-PAM2 peptide, dose response (AID 602259); type: functional; settings: read-out: IC50_Mean
T3 sequence (P11940 whole entry, the tested form may be a part): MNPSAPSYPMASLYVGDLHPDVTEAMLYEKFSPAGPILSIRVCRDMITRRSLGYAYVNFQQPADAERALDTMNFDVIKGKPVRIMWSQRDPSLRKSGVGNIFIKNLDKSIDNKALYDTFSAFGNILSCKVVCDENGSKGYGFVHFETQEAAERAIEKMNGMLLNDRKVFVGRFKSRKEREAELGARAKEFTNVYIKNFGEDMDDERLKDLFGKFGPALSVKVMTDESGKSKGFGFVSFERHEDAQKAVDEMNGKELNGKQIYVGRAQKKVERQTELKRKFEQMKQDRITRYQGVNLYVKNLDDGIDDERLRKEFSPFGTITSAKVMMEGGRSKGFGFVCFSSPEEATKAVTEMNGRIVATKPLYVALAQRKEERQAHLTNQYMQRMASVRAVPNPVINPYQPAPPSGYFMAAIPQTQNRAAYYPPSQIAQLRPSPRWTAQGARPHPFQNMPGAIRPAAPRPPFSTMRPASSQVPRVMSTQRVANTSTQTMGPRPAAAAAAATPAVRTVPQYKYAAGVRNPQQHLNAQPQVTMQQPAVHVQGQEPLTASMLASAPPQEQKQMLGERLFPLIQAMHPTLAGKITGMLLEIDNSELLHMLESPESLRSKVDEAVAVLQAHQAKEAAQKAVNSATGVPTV

[8] = biological target: T3, Polyadenylate-binding protein 1; experiment: MLLE binding blockers, Cy5 peptide tracer – biochemical, fluorescence polarization, Cy5-PAM2 peptide, secondary, miRNA deadenylation inhibitor project, dose response (AID 602260); type: functional; settings: read-out: IC50_Mean
cells [9] = experiment: cells; remark: listed apart in the source
[10] = DRD fibroblast viability loss – cell-based, non-viral oncogenic, luminescence, dose response (AID 1934); type: functional; settings: Homo sapiens
BJ [11] = experiment: BJ-TERT-LT-ST fibroblast viability loss – cell-based, RAS-independent, luminescence, dose response (AID 1935); type: functional; settings: Homo sapiens;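 note: BJ fibroblasts immortalized with TERT plus LT and ST oncogenes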
[12] = toxicity toward HepG2 liver cells – cell-based, plate reader, cherry-pick, antagonist series, cytotoxicity control, dose response (AID 743416); type: functional
BJ [13] = experiment: cells; type: functional, cell-based; settings: Homo sapiens
[14] = A549 cell cytotoxicity, dose response, cytotoxicity control, plate reader, cherry-pick, antagonist series (AID 743412); type: functional, cell-based
[15] = biological target: Luciferin 4-monooxygenase (Photinus pyralis, UniProt P08659); experiment: inhibition of purified Photinus pyralis luciferase – biochemical, luminescence, dose response (AID 1891)
Sequence of Luciferin 4-monooxygenase (P08659 whole entry): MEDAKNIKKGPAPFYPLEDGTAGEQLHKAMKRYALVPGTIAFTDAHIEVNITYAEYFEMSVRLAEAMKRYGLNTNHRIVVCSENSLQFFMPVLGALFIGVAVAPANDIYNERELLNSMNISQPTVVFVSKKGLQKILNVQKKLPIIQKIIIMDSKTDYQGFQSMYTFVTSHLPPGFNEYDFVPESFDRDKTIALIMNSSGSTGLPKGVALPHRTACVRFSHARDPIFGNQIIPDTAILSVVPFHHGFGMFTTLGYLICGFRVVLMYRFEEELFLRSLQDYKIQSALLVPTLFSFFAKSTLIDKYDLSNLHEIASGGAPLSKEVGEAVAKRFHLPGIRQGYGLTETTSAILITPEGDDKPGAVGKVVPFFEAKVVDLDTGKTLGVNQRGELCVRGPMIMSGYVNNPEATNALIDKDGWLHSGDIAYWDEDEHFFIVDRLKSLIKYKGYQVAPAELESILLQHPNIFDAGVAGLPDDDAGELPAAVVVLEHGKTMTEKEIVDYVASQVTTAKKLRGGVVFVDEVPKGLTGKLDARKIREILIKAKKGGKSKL

[16] = Luminescence Cell-Based Dose Confirmation HTS to Identify Inhibitors of Platelet Dense Granule Release. [Related pubchem assays: 1663 (Primary HTS), 1678 (Summary of Project)]; type: functional
BJ [17] = experiment: BJ-TERT fibroblast viability loss – cell-based, RAS-independent, luminescence, dose response (AID 1933); type: functional; settings: Homo sapiens
[18] = viability loss in HEK293 cells – cell-based, plate reader, cherry-picked samples, cytotoxicity control, dose response (AID 743446); type: functional
[19] = blockers of bursicon-stimulated LGR2 cAMP reporter – cell-based, HEK293, CRE-luciferase reporter, cherry pick, set 2, dose response (AID 743343); type: functional;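 note: transfected cells were stimulated with diluted bursicon conditioned medium after compound addition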
[20] = blockade of melanocortin 4 receptor signaling – cell-based, plate reader, cherry pick, counter-screen for LGR2 antagonist project, dose response (AID 743444); type: functional;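 note: transfected HEK 293 cells stimulated with alpha-MSH peptide; potency of inhibitors of the alpha-MSH evoked signal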
[21] = viability of uninfected HEp-2 cells – cell-based, HTS, cytotoxicity control for RSV inhibitor project, dose response (AID 2410); type: functional; settings: human respiratory syncytial virus
Estrogen receptor = biological target: T4, Estrogen receptor (Homo sapiens, UniProt P03372);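 note: potency for inhibiting coactivator peptide recruitment to the receptor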
T4 sequence (P03372 whole entry): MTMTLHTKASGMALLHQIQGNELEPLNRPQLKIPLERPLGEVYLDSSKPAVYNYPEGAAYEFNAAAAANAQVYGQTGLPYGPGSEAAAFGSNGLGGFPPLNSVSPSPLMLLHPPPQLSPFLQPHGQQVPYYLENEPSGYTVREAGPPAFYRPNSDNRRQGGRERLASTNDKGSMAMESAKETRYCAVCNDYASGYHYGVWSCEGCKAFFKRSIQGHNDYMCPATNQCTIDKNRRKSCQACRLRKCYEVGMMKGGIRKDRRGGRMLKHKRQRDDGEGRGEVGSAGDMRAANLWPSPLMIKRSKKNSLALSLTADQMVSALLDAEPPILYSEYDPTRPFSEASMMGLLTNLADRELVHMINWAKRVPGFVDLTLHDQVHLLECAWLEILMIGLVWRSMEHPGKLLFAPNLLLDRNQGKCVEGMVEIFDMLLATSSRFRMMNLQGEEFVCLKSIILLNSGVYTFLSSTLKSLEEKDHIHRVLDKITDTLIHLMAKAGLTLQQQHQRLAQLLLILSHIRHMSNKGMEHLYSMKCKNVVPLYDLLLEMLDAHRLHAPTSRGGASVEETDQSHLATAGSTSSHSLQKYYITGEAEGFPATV

[22] = viability loss in THP-1 monocytes – THP-1 cells, cytotoxicity control for Vif-APOBEC3G degradation inhibitor project, dose response (AID 1117359); type: functional; settings: THP-1
[23] = biological target: T5, Lytic switch protein BZLF1 (Epstein-Barr virus (strain B95-8) (HHV-4) (Human herpesvirus 4), UniProt P03206); experiment: inhibition of BZLF1 ZTA DNA binding – biochemical, fluorescence polarization, Epstein-Barr virus, 1536-well, counter-screen for EBNA-1 inhibitor project, dose response (AID 2377); design: species or system human gammaherpesvirus 4;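 note: fluorescence polarization of Cy5-labelled ZRE DNA probe bound by purified Zta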
T5 sequence (P03206 whole entry): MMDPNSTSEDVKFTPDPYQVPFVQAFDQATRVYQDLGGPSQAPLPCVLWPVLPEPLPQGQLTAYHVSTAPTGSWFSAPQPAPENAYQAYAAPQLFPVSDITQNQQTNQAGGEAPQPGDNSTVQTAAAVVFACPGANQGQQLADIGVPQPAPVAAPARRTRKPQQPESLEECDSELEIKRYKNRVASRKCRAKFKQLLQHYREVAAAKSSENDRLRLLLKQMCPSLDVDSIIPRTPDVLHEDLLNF

[24] = biological target: T6, Epstein-Barr nuclear antigen 1 (Epstein-Barr virus (strain B95-8) (HHV-4) (Human herpesvirus 4), UniProt P03211); experiment: inhibition of EBV nuclear antigen 1 DNA binding – biochemical, fluorescence polarization, 1536-well, dose response (AID 2381); design: species or system human gammaherpesvirus 4;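 note: fluorescence polarization of a Cy5 DNA probe bound by EBNA-1 protein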
T6 sequence (P03211 whole entry): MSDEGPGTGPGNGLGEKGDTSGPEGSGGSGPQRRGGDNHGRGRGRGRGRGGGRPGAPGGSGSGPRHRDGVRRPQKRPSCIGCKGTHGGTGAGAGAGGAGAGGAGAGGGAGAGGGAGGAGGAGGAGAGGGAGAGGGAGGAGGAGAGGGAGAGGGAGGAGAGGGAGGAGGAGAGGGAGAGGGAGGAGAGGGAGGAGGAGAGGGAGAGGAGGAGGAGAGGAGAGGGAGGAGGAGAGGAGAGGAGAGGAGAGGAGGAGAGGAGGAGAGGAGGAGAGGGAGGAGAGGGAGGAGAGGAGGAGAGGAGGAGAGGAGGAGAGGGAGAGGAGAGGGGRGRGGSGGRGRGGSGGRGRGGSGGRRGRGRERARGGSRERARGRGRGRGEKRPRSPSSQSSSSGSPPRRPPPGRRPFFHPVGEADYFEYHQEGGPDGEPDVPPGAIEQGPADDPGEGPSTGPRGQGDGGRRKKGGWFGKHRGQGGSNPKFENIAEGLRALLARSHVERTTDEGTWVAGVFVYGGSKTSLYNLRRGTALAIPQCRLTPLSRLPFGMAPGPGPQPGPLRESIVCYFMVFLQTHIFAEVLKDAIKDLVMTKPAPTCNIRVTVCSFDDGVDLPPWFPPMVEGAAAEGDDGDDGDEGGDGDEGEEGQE

Caspase-6 = biological target: T7, Caspase-6 (Homo sapiens, UniProt P55212); experiment: inhibition of CASP6 peptide cleavage – biochemical, VEID-R110 fluorescence, cherry-pick, dose response (AID 720632)
T7 sequence (P55212 whole entry): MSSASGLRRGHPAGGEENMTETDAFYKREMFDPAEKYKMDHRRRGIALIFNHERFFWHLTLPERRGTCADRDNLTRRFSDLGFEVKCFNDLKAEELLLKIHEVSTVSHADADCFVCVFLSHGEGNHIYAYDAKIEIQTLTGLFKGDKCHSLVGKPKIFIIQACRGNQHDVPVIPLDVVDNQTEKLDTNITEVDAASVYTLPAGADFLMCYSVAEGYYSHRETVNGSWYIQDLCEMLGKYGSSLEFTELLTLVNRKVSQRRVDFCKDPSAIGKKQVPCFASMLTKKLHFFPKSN

[25] = biological target: T8, Carboxy-terminal domain RNA polymerase II polypeptide A small phosphatase 1 (Homo sapiens, UniProt Q9GZU7); experiment: CTDSP1 inhibitors, concentration-response, biochemical, absorbance readout, ultra-high-throughput screen actives (AID 540297); type: functional
T8 sequence (Q9GZU7 whole entry): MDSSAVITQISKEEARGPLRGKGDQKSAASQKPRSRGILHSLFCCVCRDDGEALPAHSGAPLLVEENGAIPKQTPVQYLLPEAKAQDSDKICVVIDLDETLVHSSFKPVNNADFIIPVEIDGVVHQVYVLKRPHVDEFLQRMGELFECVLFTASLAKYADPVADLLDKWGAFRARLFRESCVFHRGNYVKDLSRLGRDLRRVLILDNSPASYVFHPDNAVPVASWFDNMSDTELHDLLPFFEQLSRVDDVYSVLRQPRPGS

CN(C)c1cccc2c(C#N)ccc(N(C)C)c12
IC50 [1]: > 50 µM (not active)

CCN(CC)S(=O)(=O)c1ccc2nc(COC(=O)c3n[nH]c4ccccc34)[nH]c2c1
IC50 [2]: 0.401 µM (active)

O=C(NC(=S)Nc1ccc(Br)cn1)c1cccs1
EC50 [3]: > 67.5 µM (inactive)
EC50 (cells [4]): > 67.5 µM (inactive)

O=C(NCc1ccc(F)cc1)C(Cc1ccccc1)NS(=O)(=O)c1cccs1 (configuration not stated)
IC50 [5]: > 83.3 µM (inactive)
IC50 [6]: > 109 µM (inactive)

c1coc(-c2nn3c(Cn4nnc5ccccc54)nnc3s2)c1
IC50 [7]: > 66 µM (inactive)
IC50 [8]: > 66 µM (inactive)
IC50 (cells [9]): 8.25 µM (active)

COc1ccc(-c2ccc(SC)nn2)cc1
EC50 [10]: 6.25 µM (active)
EC50 (BJ [11]): 15.7 µM (active)
AC50 [12]: 8.69 µM (active)
EC50 (BJ [13]): 6.55 µM (active)
AC50 [14]: 14.4 µM (active)
EC50 [15]: 1.1 µM (active)
EC50 [16]: 1.98 µM (active)
EC50 (BJ [17]): 6.75 µM (active)
AC50 [18]: 8.72 µM (active)
AC50 [19]: 5.07 µM (active)
AC50 [20]: 6.62 µM (active)

COc1cc2c(cc1NC(=O)Nc1ccccc1)oc1ccccc12
IC50 (cells [9]): 30.4 µM (active)
CC50 [21]: 13.2 µM (active)

CC(=O)Nc1nc(C=C(Cl)Cl)cs1
IC50 (Estrogen receptor): > 50 µM (not active)

CC(C)(C)C(=O)OCc1nc(-c2ccc(O)c(O)c2)cs1
CC50 [22]: 27.8 µM (active)

Cc1ccc(-n2c(SCC(=O)NCc3ccco3)nc3c4ccccc4nc-3c2O)cc1
CC50 [22]: > 40 µM (active)

CCOC(=O)[C@H]1[C@H]2COc3ccc(Cl)cc3[C@@H]2N2C(=O)c3ccc(Cl)cc3NC(=O)[C@@]12C
IC50 [23]: > 111 µM (not active)
IC50 [24]: > 148 µM (not active)

O=[N+]([O-])c1c(NCCO)cc(N2CCC3(CC2)OCCO3)c2nonc12
IC50 [1]: > 50 µM (not active)

CN(C)c1ccc(S(=O)(=O)N2CCCCC2)cc1NC(=O)COc1ccccc1F
IC50 [5]: > 83.3 µM (inactive)
IC50 [6]: > 109 µM (inactive)

CCOC(=O)c1ccc(-c2csc(NC(=O)CN3CCC(C)CC3)n2)cc1
IC50 [23]: > 111 µM (not active)
IC50 [24]: 5.32 µM (active)

O=c1c2sccc2n(Cc2cc(=O)n3ccccc3n2)c(=O)n1-c1ccccc1
IC50 (cells [9]): 14 µM (active)

Nc1c(C(=O)Nc2ccccc2)sc2nc(-c3ccco3)ccc12
IC50 [23]: > 111 µM (not active)
IC50 [24]: 6.43 µM (active)

Cc1cccc(Nc2nc(NCc3ccco3)nc(N3CCOCC3)n2)c1
IC50 [5]: > 83.3 µM (inactive)
CC50 [21]: 36.8 µM (active)
IC50 [6]: > 109 µM (inactive)

Cc1nnc(NS(=O)(=O)c2ccc(N=Nc3ccc(N)nc3N)cc2)s1
AC50 (Caspase-6): 3.23 µM (active)

C(=C\c1ccc([C@H]2[C@H]3CNC[C@@H]2N3Cc2ccccn2)cc1)/c1ccccc1
AC50 (Caspase-6): 41.9 µM (active)

CN(/N=C/c1cccnc1)c1cnn(-c2ccc(F)c(Cl)c2)c(=O)c1Cl
IC50 (Estrogen receptor): 17.9 µM (active)
IC50 [25]: > 80 µM (inactive)
